Results as given in article PMC10761730, “Serglycin secreted by late-stage nucleus pulposus cells is a biomarker of intervertebral disc degeneration” (Nature Communications, 2024).

Target: T1, Serglycin (SRGN) (Homo sapiens, UniProt P10124)
T1 construct: endogenous protein in primary human nucleus pulposus cells; CETSA with Western blot read-out
T1 sequence (P10124 28-158): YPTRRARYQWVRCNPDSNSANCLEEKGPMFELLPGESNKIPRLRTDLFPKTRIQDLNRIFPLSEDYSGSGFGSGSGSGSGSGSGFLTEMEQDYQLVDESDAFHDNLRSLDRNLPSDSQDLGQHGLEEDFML
Assay: cellular thermal shift assay (CETSA), Western blot
Assay type: cell-based
Conditions: intact NPCs pretreated with DAP for 12 h, heated 3 min, freeze-thaw lysis; melt curve only in figure

SMILES: O=c1ccc2ccc(O)c(O)c2o1 [Daphnetin]
- cellular thermal shift assay (CETSA), Western blot: CETSA) of DAP and SRGN proteins also suggested that DAP could bind to SRGN
